From publication PMC11003488 (Journal of Enzyme Inhibition and Medicinal Chemistry, 2023)
Where two headings read alike, the source gives them in different places.

Experiments:
[1] = system: NCI 60-cell line panel (full panel); assay: NCI-60 SRB growth inhibition, full panel mean / MG-MID; format: cell-based, human; settings: for GI50: Homo sapiens, 60 cell; for Full panel Mean GI %: mean over NCI-60 panel, single dose 10 µM
Breast cancer cell lines = assay: NCI-60 SRB growth inhibition, subpanel; format: cell-based, human; settings: for GI50: Homo sapiens
Leukaemia cell lines = assay: NCI-60 SRB growth inhibition, subpanel; format: cell-based, human; settings: for GI50: Homo sapiens
[2] = system: Ovarian cancer cell lines; assay: NCI-60 SRB growth inhibition, subpanel; format: cell-based, human; settings: for GI50: Homo sapiens
COLO 205 = assay: NCI-60 SRB growth inhibition, one-dose and five-dose; format: cell-based; settings: Homo sapiens; for GI50: COLO 205; for inhibition at 10 µM: COLO 205, read-out: percent growth inhibition
[3] = system: Prostate cancer cell lines; assay: NCI-60 SRB growth inhibition, subpanel; format: cell-based, human; settings: for GI50: Homo sapiens
HL-60(TB) = assay: cells; format: cell-based; settings: Homo sapiens; for GI50: HL-60; for inhibition at 10 µM: HL-60, read-out: percent growth inhibition
Human VEGFR-2 = Human VEGFR-2 (Homo sapiens, UniProt P35968); assay: VEGFR-2 inhibition assay; format: biochemical
NSCLC cell lines = assay: NCI-60 SRB growth inhibition, subpanel; format: cell-based, human; settings: for GI50: Homo sapiens
UACC-257 = assay: NCI-60 SRB growth inhibition, one-dose and five-dose; format: cell-based; settings: Homo sapiens; for GI50: UACC-257; for inhibition at 10 µM: UACC-257, read-out: percent growth inhibition
SF-539 = assay: as above; format: cell-based; settings: Homo sapiens; for GI50: SF-539; for inhibition at 10 µM: SF-539, read-out: percent growth inhibition
HCT-15 = assay: as above; format: cell-based; settings: Homo sapiens; for GI50: HCT-15; for inhibition at 10 µM: HCT-15, read-out: percent growth inhibition
MOLT-4 = assay: as above; format: cell-based; settings: Homo sapiens; for GI50: MOLT-4; for inhibition at 10 µM: MOLT-4, read-out: percent growth inhibition
[4] = Cytotoxicity towards normal fibroblasts, safety index; format: cell-based, human; settings: human, WI-38 normal fibroblast cells
[5] = system: WI-38 normal human fibroblast cells; assay: as above; format: cell-based; settings: WI-38 versus cancer cell lines
SF-295 = assay: NCI-60 SRB growth inhibition, one-dose and five-dose; format: cell-based; settings: Homo sapiens; for GI50: SF-295; for inhibition at 10 µM: SF-295, read-out: percent growth inhibition
SNB-19 = assay: as above; format: cell-based; settings: Homo sapiens; for GI50: SNB-19; for inhibition at 10 µM: SNB-19, read-out: percent growth inhibition
HCT-116 = assay: as above; format: cell-based; settings: Homo sapiens; for GI50: HCT-116, HCT-116, five-dose screening; for inhibition at 10 µM: HCT-116, read-out: percent growth inhibition
OVCAR-5 = assay: as above; format: cell-based; settings: Homo sapiens; for GI50: OVCAR-5; for inhibition at 10 µM: OVCAR-5, read-out: percent growth inhibition
MDA-MB-231/ATCC = assay: as above; format: cell-based; settings: Homo sapiens; for GI50: MDA-MB-231
Melanoma cell lines = assay: NCI-60 SRB growth inhibition, subpanel; format: cell-based, human; settings: for GI50: Homo sapiens
RXF 393 = assay: NCI-60 SRB growth inhibition, one-dose and five-dose; format: cell-based; settings: Homo sapiens; for GI50: RXF 393; for inhibition at 10 µM: RXF 393, read-out: percent growth inhibition
Renal cancer cell lines = assay: NCI-60 SRB growth inhibition, subpanel; format: cell-based, human; settings: for GI50: Homo sapiens
OVCAR-4 = assay: NCI-60 SRB growth inhibition, one-dose and five-dose; format: cell-based; settings: Homo sapiens; for GI50: OVCAR-4; for inhibition at 10 µM: OVCAR-4, read-out: percent growth inhibition
CNS cancer cell lines = assay: NCI-60 SRB growth inhibition, subpanel; format: cell-based, human; settings: for GI50: Homo sapiens
UO-31 = assay: NCI-60 SRB growth inhibition, one-dose and five-dose; format: cell-based; settings: Homo sapiens; for GI50: UO-31
Colon cancer cell lines = assay: NCI-60 SRB growth inhibition, subpanel; format: cell-based, human; settings: for GI50: Homo sapiens
HS 578 T = assay: NCI-60 SRB growth inhibition, one-dose and five-dose; format: cell-based; settings: Homo sapiens; for inhibition at 10 µM: read-out: percent growth inhibition
IGROV1 = assay: as above; format: cell-based; settings: Homo sapiens; for GI50: IGROV-1; for inhibition at 10 µM: IGROV-1, read-out: percent growth inhibition
OVCAR-3 = assay: as above; format: cell-based; settings: Homo sapiens; for GI50: OVCAR-3; for inhibition at 10 µM: OVCAR-3, read-out: percent growth inhibition

Human VEGFR-2, sequence (P35968 20-1356): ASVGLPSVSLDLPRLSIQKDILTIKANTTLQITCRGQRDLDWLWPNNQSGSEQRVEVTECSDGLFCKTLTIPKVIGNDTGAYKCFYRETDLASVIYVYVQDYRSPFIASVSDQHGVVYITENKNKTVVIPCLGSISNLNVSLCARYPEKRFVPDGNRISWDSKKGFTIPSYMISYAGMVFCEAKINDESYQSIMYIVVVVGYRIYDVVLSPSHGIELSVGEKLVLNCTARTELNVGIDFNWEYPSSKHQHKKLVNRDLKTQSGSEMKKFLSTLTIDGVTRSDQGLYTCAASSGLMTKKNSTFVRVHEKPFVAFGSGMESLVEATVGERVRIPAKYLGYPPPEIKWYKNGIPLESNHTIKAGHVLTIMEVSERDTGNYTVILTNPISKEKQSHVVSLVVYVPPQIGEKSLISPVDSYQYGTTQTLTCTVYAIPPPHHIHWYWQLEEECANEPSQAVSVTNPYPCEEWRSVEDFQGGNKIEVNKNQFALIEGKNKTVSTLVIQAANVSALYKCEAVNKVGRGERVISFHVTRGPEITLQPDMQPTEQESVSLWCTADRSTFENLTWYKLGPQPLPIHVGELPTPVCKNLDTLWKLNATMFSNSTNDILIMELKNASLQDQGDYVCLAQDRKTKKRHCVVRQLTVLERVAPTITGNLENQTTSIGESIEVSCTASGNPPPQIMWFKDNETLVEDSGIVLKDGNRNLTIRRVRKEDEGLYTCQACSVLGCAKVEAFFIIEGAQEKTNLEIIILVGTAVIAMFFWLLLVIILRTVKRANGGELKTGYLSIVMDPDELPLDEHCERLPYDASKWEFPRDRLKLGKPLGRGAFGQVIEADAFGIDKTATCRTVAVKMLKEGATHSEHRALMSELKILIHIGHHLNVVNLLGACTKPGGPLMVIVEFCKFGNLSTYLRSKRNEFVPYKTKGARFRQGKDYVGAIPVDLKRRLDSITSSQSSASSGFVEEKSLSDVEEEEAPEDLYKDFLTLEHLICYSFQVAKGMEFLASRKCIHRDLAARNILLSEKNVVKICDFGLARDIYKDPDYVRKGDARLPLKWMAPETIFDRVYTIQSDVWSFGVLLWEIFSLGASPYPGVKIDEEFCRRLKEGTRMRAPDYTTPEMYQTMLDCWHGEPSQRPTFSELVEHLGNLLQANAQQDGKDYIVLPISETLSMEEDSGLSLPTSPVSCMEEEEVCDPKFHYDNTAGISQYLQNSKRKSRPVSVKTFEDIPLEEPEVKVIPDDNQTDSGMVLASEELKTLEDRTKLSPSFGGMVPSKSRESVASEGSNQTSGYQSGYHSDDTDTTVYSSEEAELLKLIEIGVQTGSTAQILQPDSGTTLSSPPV

Cc1ccc(CNc2cccc(C(=O)/C=C/c3cccnc3)c2)cc1 [Compound 5a, (E)-1–(3-((4-methylbenzyl)amino)phenyl)-3-(pyridin-3-yl)prop-2-en-1-one]
GI50 ([1]; read-out: Full panel GI50 mean): 10.8 µM | Full panel Mean GI % [1]: 82.76% | GI50 (Breast cancer cell lines; read-out: GI50 MG-MID): 9.21 µM | GI50 (Leukaemia cell lines; read-out: GI50 MG-MID): 3.34 µM | GI50 ([2]; read-out: GI50 MG-MID): 11.4 µM | GI50 (COLO 205): 17.1 µM | inhibition at 10 µM (COLO 205): 36.9% | GI50 ([3]; read-out: GI50 MG-MID): 13.8 µM | GI50 (HL-60(TB)): 6.25 µM | inhibition at 10 µM (HL-60(TB)): 54.6% | IC50 (Human VEGFR-2): 2 ± 0.023 µM | GI50 (NSCLC cell lines; read-out: GI50 MG-MID): 13.7 µM | GI50 (UACC-257): 14.4 µM | inhibition at 10 µM (UACC-257): 39.6% | GI50 (SF-539): 15.6 µM | inhibition at 10 µM (SF-539): 152% | GI50 (HCT-15): 4.15 µM | inhibition at 10 µM (HCT-15): 156% | GI50 (MOLT-4): 3.54 µM | inhibition at 10 µM (MOLT-4): 57.3% | GI50 at 48 h [4]: > 100 µM | Safety index [5]: >1 | GI50 (SF-295): 14 µM | inhibition at 10 µM (SF-295): 58.9% | GI50 (SNB-19): 14 µM | inhibition at 10 µM (SNB-19): 34.9% | GI50 (HCT-116): 2.07 µM | inhibition at 10 µM (HCT-116): 189% | GI50 (OVCAR-5): 15.6 µM | inhibition at 10 µM (OVCAR-5): 52.2% | GI50 (MDA-MB-231/ATCC): 11.3 µM | inhibition at 10 µM (MDA-MB-231/ATCC; MDA-MB-231, read-out: percent growth inhibition): 110% | GI50 (Melanoma cell lines; read-out: GI50 MG-MID): 10.6 µM | GI50 (RXF 393): 12.3 µM | inhibition at 10 µM (RXF 393): 67.9% | GI50 (Renal cancer cell lines; read-out: GI50 MG-MID): 13.3 µM | GI50 (OVCAR-4): 6.81 µM | inhibition at 10 µM (OVCAR-4): 63.8% | GI50 (CNS cancer cell lines; read-out: GI50 MG-MID): 13.2 µM | GI50 (UO-31): 11.7 µM | inhibition at 10 µM (UO-31; UO-31, read-out: percent growth inhibition): 47.5% | GI50 (Colon cancer cell lines; read-out: GI50 MG-MID): 8.84 µM | GI50 (HS 578 T): 14.6 µM | inhibition at 10 µM (HS 578 T): 69.2% | GI50 (IGROV1): 13.6 µM | inhibition at 10 µM (IGROV1): 44.5% | GI50 (OVCAR-3): 7.19 µM | inhibition at 10 µM (OVCAR-3): 84.8%

CC(=O)Nc1ccc(CNc2cccc(C(=O)/C=C/c3cccnc3)c2)cc1 [Compound 5b, (E)-N-(4-(((3–(3-(pyridin-3-yl)acryloyl)phenyl)amino)methyl)phenyl)acetamide]
GI50 ([1]; read-out: Full panel GI50 mean): 4.65 µM | GI50 ([1]; read-out: Full panel MG-MID GI50): 4.65 µM | Full panel Mean GI % [1]: 123.16% | GI50 (Breast cancer cell lines; read-out: GI50 MG-MID): 2.45 µM | GI50 (Breast cancer cell lines; read-out: MG-MID GI50): 2.45 µM | SI (Selectivity Index) (Breast cancer cell lines; full panel MG-MID / Breast Cancer subpanel MG-MID): 1.90 | GI50 (Leukaemia cell lines; read-out: GI50 MG-MID): 2.49 µM | GI50 (Leukaemia cell lines; read-out: MG-MID GI50): 2.49 µM | SI (Selectivity Index) (Leukaemia cell lines; full panel MG-MID / leukaemia subpanel MG-MID): 1.87 | GI50 ([2]; read-out: GI50 MG-MID): 5.71 µM | GI50 ([2]; read-out: MG-MID GI50): 5.71 µM | SI (Selectivity Index) ([2]; full panel MG-MID / Ovarian Cancer subpanel MG-MID): 0.81 | GI50 (COLO 205): 10.9 µM | inhibition at 10 µM (COLO 205): 156% | GI50 ([3]; read-out: GI50 MG-MID): 4.1 µM | GI50 ([3]; read-out: MG-MID GI50): 4.1 µM | SI (Selectivity Index) ([3]; full panel MG-MID / Prostatic Cancer subpanel MG-MID): 1.13 | GI50 (HL-60(TB)): 2.78 µM | inhibition at 10 µM (HL-60(TB)): 144% | IC50 (Human VEGFR-2): 1.77 ± 0.021 µM | GI50 (NSCLC cell lines; read-out: GI50 MG-MID): 7.24 µM | GI50 (NSCLC cell lines; read-out: MG-MID GI50): 7.24 µM | SI (Selectivity Index) (NSCLC cell lines; full panel MG-MID / NSCLC subpanel MG-MID): 0.64 | GI50 (UACC-257): 9.35 µM | inhibition at 10 µM (UACC-257): 120% | GI50 (SF-539): 6.35 µM | inhibition at 10 µM (SF-539): 170% | GI50 (HCT-15): 2.05 µM | inhibition at 10 µM (HCT-15): 138% | GI50 (MOLT-4): 2.88 µM | inhibition at 10 µM (MOLT-4): 128% | GI50 at 48 h [4]: > 100 µM | Safety index [5]: >1 | GI50 (SF-295): 10.3 µM | inhibition at 10 µM (SF-295): 91.9% | GI50 (SNB-19): 3.61 µM | inhibition at 10 µM (SNB-19): 99.1% | GI50 (HCT-116): 1.8 µM | inhibition at 10 µM (HCT-116): 196% | GI50 (OVCAR-5): 3.44 µM | inhibition at 10 µM (OVCAR-5): 103% | GI50 (MDA-MB-231/ATCC): 2.16 µM | GI50 (Melanoma cell lines; read-out: GI50 MG-MID): 3.99 µM | GI50 (Melanoma cell lines; read-out: MG-MID GI50): 3.99 µM | SI (Selectivity Index) (Melanoma cell lines; full panel MG-MID / Melanoma subpanel MG-MID): 1.12 | GI50 (RXF 393): 3.09 µM | inhibition at 10 µM (RXF 393): 194% | GI50 (Renal cancer cell lines; read-out: GI50 MG-MID): 5.2 µM | GI50 (Renal cancer cell lines; read-out: MG-MID GI50): 5.2 µM | SI (Selectivity Index) (Renal cancer cell lines; full panel MG-MID / Renal Cancer subpanel MG-MID): 0.89 | GI50 (OVCAR-4): 8.63 µM | inhibition at 10 µM (OVCAR-4): 88.5% | GI50 (CNS cancer cell lines; read-out: GI50 MG-MID): 7.46 µM | GI50 (CNS cancer cell lines; read-out: MG-MID GI50): 7.46 µM | SI (Selectivity Index) (CNS cancer cell lines; full panel MG-MID / CNS Cancer subpanel MG-MID): 0.62 | GI50 (UO-31): 3.04 µM | GI50 (Colon cancer cell lines; read-out: GI50 MG-MID): 3.26 µM | GI50 (Colon cancer cell lines; read-out: MG-MID GI50): 3.26 µM | SI (Selectivity Index) (Colon cancer cell lines; full panel MG-MID / Colon Cancer subpanel MG-MID): 1.43 | GI50 (HS 578 T): 2.57 µM | inhibition at 10 µM (HS 578 T): 88.3% | GI50 (IGROV1): 2.3 µM | inhibition at 10 µM (IGROV1): 123% | GI50 (OVCAR-3): 2.85 µM | inhibition at 10 µM (OVCAR-3): 190%

CC(=O)Nc1ccc(/C=C/C(=O)c2cccc(NCc3ccc4oc(=O)ccc4c3)c2)cc1 [Compound 5k, (E)-N-(4–(3-oxo-3–(3-(((2-oxo-2H-chromen-6-yl)methyl)amino)phenyl)prop-1-en-1-yl)phenyl)acetamide]
Full panel Mean GI % [1]: 39.00% | inhibition at 10 µM (COLO 205): -13.2% | inhibition at 10 µM (HL-60(TB)): 59% | inhibition at 10 µM (UACC-257): 45.1% | inhibition at 10 µM (SF-539): 19% | inhibition at 10 µM (HCT-15): 50.7% | inhibition at 10 µM (MOLT-4): 84.2% | inhibition at 10 µM (SF-295): 36.8% | inhibition at 10 µM (SNB-19): 38.8% | inhibition at 10 µM (HCT-116): 78.8% | inhibition at 10 µM (OVCAR-5): 16.8% | inhibition at 10 µM (RXF 393): 18% | inhibition at 10 µM (OVCAR-4): 43.9% | inhibition at 10 µM (HS 578 T): 22.1% | inhibition at 10 µM (IGROV1): 23.3% | inhibition at 10 µM (OVCAR-3): 41.7%
